Measurements: US20050049186A1, “Peptides mimicking the biological activity of steroid hormones and their uses” (priority 2000, published 2005)
Read-outs that look alike come from different tables or passages of the source. Peptide text beside a SMILES is read from it.

Columns and labels:
ER α = target: T1, ER α (Homo sapiens, UniProt P03372); assay: Receptor binding assay for estrogen receptor alpha; settings: for recognition of / binding activity to estrogen receptor α: summary of Tables 3 to 5
T1 sequence (P03372 1-595): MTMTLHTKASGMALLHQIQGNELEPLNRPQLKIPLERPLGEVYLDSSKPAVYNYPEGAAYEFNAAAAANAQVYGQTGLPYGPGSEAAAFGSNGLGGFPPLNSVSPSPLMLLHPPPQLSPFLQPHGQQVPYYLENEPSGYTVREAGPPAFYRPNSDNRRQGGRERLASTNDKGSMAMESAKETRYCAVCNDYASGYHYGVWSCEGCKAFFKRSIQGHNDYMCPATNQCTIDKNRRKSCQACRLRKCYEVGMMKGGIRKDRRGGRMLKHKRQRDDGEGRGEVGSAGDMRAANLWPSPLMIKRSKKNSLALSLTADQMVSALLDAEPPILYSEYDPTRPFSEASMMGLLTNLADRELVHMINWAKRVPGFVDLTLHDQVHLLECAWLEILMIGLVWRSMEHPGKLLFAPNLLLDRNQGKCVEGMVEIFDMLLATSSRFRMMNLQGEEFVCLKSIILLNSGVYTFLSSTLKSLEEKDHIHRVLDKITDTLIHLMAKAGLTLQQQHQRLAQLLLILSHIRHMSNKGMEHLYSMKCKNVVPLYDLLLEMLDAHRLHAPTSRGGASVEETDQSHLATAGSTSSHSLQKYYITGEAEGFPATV

ER β = ER β (Homo sapiens, UniProt Q92731); assay: Receptor binding assay for estrogen receptor beta; settings: for IC50 to ERβ / IC50: Table 5; for recognition of / binding activity to estrogen receptor β: summary of Tables 3 to 5; for IC50: read-out: IC50 to ERβ
ER β, sequence (Q92731 whole entry, species assumed): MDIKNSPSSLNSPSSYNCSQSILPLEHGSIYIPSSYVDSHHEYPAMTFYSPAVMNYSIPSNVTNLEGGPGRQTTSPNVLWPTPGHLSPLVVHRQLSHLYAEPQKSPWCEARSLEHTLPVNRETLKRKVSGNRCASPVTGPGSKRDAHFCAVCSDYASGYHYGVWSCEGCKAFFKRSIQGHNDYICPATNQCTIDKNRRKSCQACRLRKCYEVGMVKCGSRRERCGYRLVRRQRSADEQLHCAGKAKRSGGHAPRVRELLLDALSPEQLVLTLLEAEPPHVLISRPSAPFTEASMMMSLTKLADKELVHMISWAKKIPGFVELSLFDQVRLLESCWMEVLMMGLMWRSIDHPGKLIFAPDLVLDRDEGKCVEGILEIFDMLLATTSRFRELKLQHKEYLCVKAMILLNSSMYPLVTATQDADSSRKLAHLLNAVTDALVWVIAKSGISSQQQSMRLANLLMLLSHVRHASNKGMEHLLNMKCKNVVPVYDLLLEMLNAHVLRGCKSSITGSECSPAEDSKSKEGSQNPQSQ

[1] = target: anti-estradiol mAb clone 15; assay: Competitive immunoassay: inhibition of binding of labeled E2 (estradiol ovalbumin europium conjugate) to anti-E2 clone 15; set-up: species or system mouse; settings: for IC50: Table 5, estradiol ovalbumin europium conjugate; for inhibition of the binding of estradiol ovalbumin europium conjugate to anti-E2 mAb clone 15 relative to peptides 1 and 2: compared with the linear or cyclic peptides 1 and 2; for inhibition of binding of estradiol ovalbumin europium conjugate to anti-estradiol mAb clone 15: text summary of Table 4
Source text: […]. The linear peptide 1 is 15-amino acid long. We further explored the possibility whether smaller peptides derived from peptide 1 may have antibody binding activity and receptor binding activity. In order to find out the minimum amino acid sequence required in the linear peptide 1 for antibody and receptor binding, several peptides with varying length of from 4 to 14 amino acids long were synthesized, and were first evaluated in terms of binding to anti-estradiol (E2) mAb clone 15. The peptides showing similar or better antibody binding activity than the linear peptide 1 were further evaluated in terms of binding to ERα and β.

[2] = Table 5, read-out: IC50 to ER α

Compound | IC50 (ER α; FIG. 2, read-out: IC50, binding to ER α) [nM] | IC50 to ERβ (ER β) | IC50 to ER α (ER α; Table 5) | recognition of / binding activity to estrogen receptor α (ER α) | recognition of / binding activity to estrogen receptor β (ER β) | IC50 [1] [nM] | inhibition of the binding of estradiol ovalbumin europium conjugate to anti-E2 mAb clone 15 relative to peptides 1 and 2 [1] | IC50 (ER β) [nM] | IC50 (ER α; [2]) [nM] | inhibition of binding of estradiol ovalbumin europium conjugate to anti-estradiol mAb clone 15 [1]
CC(C)C[C@@H]1NC(=O)[C@H](C)NC(=O)[C@@H]2CCCN2C(=O)[C@H](CC(C)C)NC(=O)[C@H](CCC(=O)O)NC(=O)[C@H](C)NC(=O)[C@@H](N)CSSC[C@@H](C(=O)O)NC(=O)[C@@H]2CCCN2C(=O)[C@@H]2CCCN2C(=O)[C@@H]2CCCN2C(=O)[C@@H]2CCCN2C(=O)[C@H](CCCCN)NC(=O)[C@H]([C@@H](C)O)NC(=O)[C@H](CCC(=O)O)NC(=O)[C@H](Cc2ccccc2)NC(=O)[C@H](Cc2ccccc2)NC(=O)[C@H](Cc2c[nH]c3ccccc23)NC(=O)[C@H](CCCNC(=N)N)NC(=O)[C@H](CCCCN)NC(=O)[C@H]([C@@H](C)O)NC(=O)[C@@H]2CCCN2C(=O)[C@H](CC(=O)O)NC1=O [Peptide 2] (HELM PEPTIDE1{C.A.E.L.P.A.L.D.P.T.K.R.W.F.F.E.T.K.P.P.P.P.C}$PEPTIDE1,PEPTIDE1,1:R3-23:R3$$$V2.0; N-terminus and C-terminus assumed) | 100000 | none |  |  |  |  |  |  |  | 
NCCCC[C@H](N)C(=O)N[C@@H](CO)C(=O)N[C@@H](Cc1c[nH]c2ccccc12)C(=O)N[C@@H](Cc1ccccc1)C(=O)N[C@@H](Cc1ccccc1)C(=O)N[C@@H](CCC(=O)O)C(=O)O [Peptide 19, KSWFFE] (H-KSWFFE-OH; N-terminus and C-terminus assumed) |  | None | None | did not show any binding activity | did not show any binding activity | 40 | one and half order of magnitude better |  |  | 
NCCCC[C@H](N)C(=O)N1CCC[C@H]1C(=O)N[C@@H](Cc1c[nH]c2ccccc12)C(=O)N[C@@H](Cc1ccccc1)C(=O)N[C@@H](Cc1ccccc1)C(=O)N[C@@H](CCC(=O)O)C(=O)O [Peptide 21, KPWFFE] (H-KPWFFE-OH) |  |  |  | recognized | recognized | 45 | one and half order of magnitude better | > 500000 |  | 
CC(C)[C@H](N)C(=O)N[C@@H](CCCNC(=N)N)C(=O)N[C@@H](Cc1c[nH]c2ccccc12)C(=O)N[C@@H](Cc1ccccc1)C(=O)N[C@@H](Cc1ccccc1)C(=O)N[C@@H](CCC(=O)O)C(=O)O [Peptide 39, VRWFFE] (H-VRWFFE-OH) |  |  |  |  |  |  |  | < 100000 | < 100000 | 
N=C(N)NCCC[C@H](NC(=O)[C@@H](N)CCCCN)C(=O)N[C@@H](Cc1c[nH]c2ccccc12)C(=O)N[C@@H](Cc1ccccc1)C(=O)N[C@@H](Cc1ccccc1)C(=O)N[C@@H](CCC(=O)O)C(=O)O [Peptide 44, KRWFFE] (H-KRWFFE-OH) |  |  |  | recognized | recognized | 35 | one and half order of magnitude better | 400000 | 400000 | 
C[C@H](N)C(=O)N[C@@H](CCCNC(=N)N)C(=O)N[C@@H](Cc1c[nH]c2ccccc12)C(=O)N[C@@H](Cc1ccccc1)C(=O)N[C@@H](Cc1ccccc1)C(=O)N[C@@H](CCC(=O)O)C(=O)O [Peptide A-43, ARWFFE] (H-ARWFFE-OH) |  | None |  | recognized only the estrogen receptor α | not β | 40 | one and half order of magnitude better |  |  | showed inhibition
C[C@H](NC(=O)[C@@H](N)CCCCN)C(=O)N[C@@H](Cc1c[nH]c2ccccc12)C(=O)N[C@@H](Cc1ccccc1)C(=O)N[C@@H](Cc1ccccc1)C(=O)N[C@@H](CCC(=O)O)C(=O)O [Peptide A-44, KAWFFE] (H-KAWFFE-OH) |  |  |  | recognized | recognized | 40 | one and half order of magnitude better | 250000 | 250000 | showed inhibition
CC(C)[C@H](N)C(=O)N1CCC[C@H]1C(=O)N[C@@H](Cc1c[nH]c2ccccc12)C(=O)N[C@@H](Cc1ccccc1)C(=O)N[C@@H](Cc1ccccc1)C(=O)N[C@@H](CCC(=O)O)C(=O)O [Peptide B33, VPWFFE] (H-VPWFFE-OH; N-terminus and C-terminus assumed) |  | None | None | did not show any binding activity | did not show any binding activity | 6 | one and half order of magnitude better |  |  | 
CC(C)[C@H](N)C(=O)N[C@@H](CO)C(=O)N[C@@H](Cc1c[nH]c2ccccc12)C(=O)N[C@@H](Cc1ccccc1)C(=O)N[C@@H](Cc1ccccc1)C(=O)N[C@@H](CCC(=O)O)C(=O)O [Peptide B34, VSWFFE] (H-VSWFFE-OH) |  |  |  | recognized | recognized | 6 | one and half order of magnitude better | 100000 | 250000 | 
CC(C)[C@H](N)C(=O)N[C@@H](CCCNC(=N)N)C(=O)N[C@@H](Cc1c[nH]c2ccccc12)C(=O)N[C@@H](Cc1ccccc1)C(=O)N[C@@H](Cc1ccc(O)cc1)C(=O)N[C@@H](CCC(=O)O)C(=O)O [Peptide B35, VRWFYE] (H-VRWFYE-OH; N-terminus and C-terminus assumed) |  | None | None | did not show any binding activity | did not show any binding activity | 6 | one and half order of magnitude better |  |  | 
CC[C@H](C)[C@H](N)C(=O)N[C@@H](CCCNC(=N)N)C(=O)N[C@@H](Cc1c[nH]c2ccccc12)C(=O)N[C@@H](Cc1ccccc1)C(=O)N[C@@H](Cc1ccccc1)C(=O)N[C@@H](CCC(=O)O)C(=O)O [Peptide B37, IRWFFE] (H-IRWFFE-OH) |  |  | None |  | recognized only the ERβ | 20 | one and half order of magnitude better | 250000 |  | 
CC(C)C[C@H](N)C(=O)N[C@@H](CCCNC(=N)N)C(=O)N[C@@H](Cc1c[nH]c2ccccc12)C(=O)N[C@@H](Cc1ccccc1)C(=O)N[C@@H](Cc1ccccc1)C(=O)N[C@@H](CCC(=O)O)C(=O)O [Peptide B38, LRWFFE] (H-LRWFFE-OH; N-terminus and C-terminus assumed) |  | None | None | did not show any binding activity | did not show any binding activity | 40 | one and half order of magnitude better |  |  | 
WFFE [Peptide 46] |  |  |  | did not show any inhibition |  |  |  |  |  | 
